For 9 compounds, EC50 and Ki results are on record in BindingDB's records for doi:10.1021/ml500507v (University of Cambridge, 2015).

Test [1] deals with T1, 5-hydroxytryptamine receptor 2C (Homo sapiens, UniProt P28335).
T1 sequence (P28335 whole entry): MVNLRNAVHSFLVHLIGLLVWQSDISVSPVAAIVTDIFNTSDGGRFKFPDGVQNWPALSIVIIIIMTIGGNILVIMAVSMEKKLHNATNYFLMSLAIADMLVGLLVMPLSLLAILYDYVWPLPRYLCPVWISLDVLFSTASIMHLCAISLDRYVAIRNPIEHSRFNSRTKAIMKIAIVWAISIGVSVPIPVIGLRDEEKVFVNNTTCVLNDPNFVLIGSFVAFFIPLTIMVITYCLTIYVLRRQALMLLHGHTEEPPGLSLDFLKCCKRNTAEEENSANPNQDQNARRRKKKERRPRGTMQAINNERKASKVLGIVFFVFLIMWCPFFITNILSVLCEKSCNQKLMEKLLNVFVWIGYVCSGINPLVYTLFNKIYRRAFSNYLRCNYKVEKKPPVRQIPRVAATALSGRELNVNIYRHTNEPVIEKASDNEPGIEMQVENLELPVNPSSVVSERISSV
As to the kind of experiment: Agonist activity at human recombinant 5-HT2C receptor expressed in Swiss mouse 3T3 cell membranes after 30 to 40 mins by GTPgammaS recruitment assay.

Test [2] concerns the target T1, 5-hydroxytryptamine receptor 2C. The experiment in a line: Inhibition of Cy3B conjugated serotonin analogue binding to human recombinant 5-HT2C receptor expressed in Swiss mouse 3T3 cell membranes after 60 mins by fluorescence polarization assay.

Consider `c1ccc(CNc2nc(Cc3ccccc3)cc3c2CCNCC3)cc1`, for which the EC50 in test [1] is 0.158 µM. For the same compound, the Ki in test [2] was 0.022 µM. With `c1ccc(Cc2cc3c(c(NCC4CC4)n2)CCNCC3)cc1`, the Ki in test [2] was determined as 0.0005 µM. For `CC(C)CNc1nc(Cc2ccccc2)cc2c1CCNCC2`, the EC50 in test [1] is 0.036 µM. Besides, the Ki in test [2] amounted to 0.012 µM.

As for `CCNc1nc(Cc2ccccc2)cc2c1CCNCC2`, in test [1], the EC50 is 0.011 µM. In addition, the Ki in test [2] came to 0.003 µM. For the compound `CNc1nc(Cc2ccccc2)cc2c1CCNCC2`, the EC50 in test [1] came out at 0.009 µM. Moreover, in test [2], the Ki worked out at 0.003 µM.

On to `CCCNc1nc(Cc2ccccc2)cc2c1CCNCC2`, for which the Ki in test [2] is 0.004 µM. `CC(C)Nc1nc(Cc2ccccc2)cc2c1CCNCC2`: in test [2], the Ki came to 0.013 µM.

With `CN(C)c1nc(Cc2ccccc2)cc2c1CCNCC2`, in test [2], the Ki was 0.012 µM.

Consider `c1ccc(Cc2cc3c(cn2)CCNCC3)cc1`, for which the Ki in test [2] worked out at 0.035 µM.
